# Assay results from US20060093673A1, “Controlled release of anti-arrhythmic agents” (priority 2003, published 2006).
# Structures can show the parent of a compound that is named as a salt.
# Tests used:
# [1] = Modulus and pH of FOCALSEAL-L as a function of drug loading; settings: loaded into the FOCALSEAL-L formulation
# [2] = In-vitro release from FocalSeal-L gel disks, flow-through dissolution tank; format: physicochemical; settings: FocalSeal-L with 1% dexamethasone and 1% amiodarone HCl; 2 mm gel disc
# From the text: Method: […] The gel disks were then placed in a flow-through dissolution tank and gels were sampled over time. Residual drug was extracted from the gel disks with methanol and drug was quantitated by HPLC.
# [3] = cited from earlier work
Compound,loading level that maintains acceptable pH and modulus values [1],time over which amiodarone HCl is released in-vitro [2] [days],aqueous solubility [3] [µg/mL]
"CCCCc1oc2ccccc2c1C(=O)c1cc(I)c(OCCN(CC)CC)c(I)c1 [amiodarone, Amiodarone hydrochloride]",about 1.5%,11 to 12,–
"C[C@@H]1C[C@H]2[C@@H]3CCC4=CC(=O)C=C[C@]4(C)[C@@]3(F)[C@@H](O)C[C@]2(C)[C@@]1(O)C(=O)CO [dexamethasone free base, dexamethasone]",–,–,10000
